In PMC9430770 (Microbiology Spectrum, 2022):

Legend:
C. albicans SC5314 = experiment: Spot assay on solid YPD or YPG plates containing BE; assay type: cell-based, Candida albicans; settings: 48 h, 30°C
Description: To test whether BE antifungal activity in C. albicans as well as in mammalian cells was carbon source dependent ([27]), we investigated the activity of BE in spot assays on both solid yeast extract-peptone-dextrose (YPD) (containing 20 mg/mL glucose) and solid YPG (containing 2% [vol/vol] glycerol) media.
FIG 1 The antifungal activity of BE depends on the carbon source. The overnight-cultured C. albicans SC5314 cells were diluted to 1 × 10^7 cells/mL and used as the initial concentration for four times of 10-fold dilution. Subsequently, 5 μL of a 10-fold dilution series was spotted onto YPD or YPG solid plates containing the indicated different concentrations of BE. After 48 h of incubation at 30°C, pictures of the growth of cells were taken.
The spotting assay was performed as described previously ([50]). Briefly, after grown overnight, mid-log-phase cultures of strains required for experimental conditions were adjusted to 1 × 10^7 cells/mL using a hemacytometer, then were 1:10 serially diluted in sterile PBS, and were spotted onto indicated plates with an indicated concentration of BE. After 48 h of incubation at 30°C, pictures of the growth of cells were taken.

C. albicans SN152 = experiment: Galleria mellonella infection model, SN152 strain; assay type: in vivo, Candida albicans; settings: G. mellonella, 10 mg/kg
Description: To assess whether Eno1 is a therapeutic target of BE, we constructed a homozygous deletion strain for the ENO1 gene (eno1/eno1). We then investigated the difference in the antifungal efficacy of BE on the infections caused by the parent strain SN152 and the eno1/eno1 strain in the Galleria mellonella infection model. We divided the G. mellonella into 5 groups, with 10 larvae in each group. All 10 larvae died after a 24-h infection with the SN152 strain, while only 3 larvae died after 24 h when infected with the eno1/eno1 strain; the remaining larvae died within 7 days. Compared with the group infected with the parent strain, the survival time of the group infected with the eno1/eno1 strain was longer (P < 0.01) (Fig. 4A). […]
FIG 4 Eno1 acts as a therapeutic target of BE. […] Each curve represents a group of 10 larvae (n =10) monitored daily for survival for up to 10 days after infection. […]
Virulence testing of C. albicans was done in Galleria mellonella as described previously ([56]). […] After growth in YPD media overnight at 30°C and 200 rpm, C. albicans SN152 cells or eno1/eno1 mutant cells were washed with PBS 3 times and diluted to the desired concentration (1 × 10^7 cells/mL) determined by counting with a hemacytometer. […] The death of G. mellonella was assessed daily and analyzed statistically by the Kaplan-Meier method (log-rank test).

[1] = target: mutant Eno1 (D263A, S269A, and K273A) (Candida albicans, UniProt P30575, D263A/K273A/S269A); experiment: SPR binding of BE to mutant Eno1
Sequence of mutant Eno1 (D263A, S269A, and K273A) (P30575 whole entry D263A/S269A/K273A): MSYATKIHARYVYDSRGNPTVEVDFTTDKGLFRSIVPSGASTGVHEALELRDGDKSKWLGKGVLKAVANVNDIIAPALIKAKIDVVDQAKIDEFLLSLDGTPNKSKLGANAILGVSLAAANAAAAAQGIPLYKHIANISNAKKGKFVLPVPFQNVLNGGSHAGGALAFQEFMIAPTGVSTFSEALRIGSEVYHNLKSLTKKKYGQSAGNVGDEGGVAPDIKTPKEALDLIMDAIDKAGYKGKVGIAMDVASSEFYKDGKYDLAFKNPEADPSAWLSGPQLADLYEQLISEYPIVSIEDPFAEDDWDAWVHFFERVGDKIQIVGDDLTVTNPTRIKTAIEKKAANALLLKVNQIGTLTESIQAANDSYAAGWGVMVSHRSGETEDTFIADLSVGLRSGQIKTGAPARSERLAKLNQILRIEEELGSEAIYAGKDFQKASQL
Excerpt: SPR, surface plasmon resonance; RU, response unit.
The benzene ring with hydroxyl group can form a cation-π interaction with K273 (Fig. 6C). To confirm that D263, S269, and K273 play crucial roles in interacting with BE, we have mutated these three amino acids (D263A, S269A, and K273A) in CaEno1.

O=c1cc(-c2ccccc2)oc2cc(O)c(O)c(O)c12 [BE, Baicalein]
antifungal activity (spot assay) (C. albicans SC5314; 64 μg/mL BE, solid YPD medium (20 mg/mL glucose)): had antifungal activity
antifungal activity (spot assay) (C. albicans SC5314; 64 μg/mL BE, solid YPG medium (2% glycerol)): not in solid YPG medium
antifungal activity (spot assay) (C. albicans SC5314; 128 μg/mL BE, solid YPD medium): potent antifungal activity
growth of C. albicans (spot assay) (C. albicans SC5314; 128 μg/mL BE, solid YPG medium): could still grow
survival rate of larvae extended versus infected group without drug treatment (C. albicans SN152): 30%
binding detected by SPR analysis [1]: no binding
